Values joined by “and” are separate entries in the source; they are usually repeats but may differ in a detail not shown here. Equal values may be shown once. Inconclusive results and toxic doses are left out. How the source made its calls: active means survival T/C of 150% or more; inactive means T/C below 125% in these data.
System: P388 leukemia ip, CD2F1 mice, survival T/C
Test: NCI In Vivo Anticancer Drug Screen. Data for tumor model P388 Leukemia (intraperitoneal) in CD2F1 (CDF1) mice
Settings: endpoint: median survival time, higher = longer survival
Summary of the method: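 Mice carrying the transplanted tumor received test compound or vehicle. Survival was recorded in each group, and the value is the treated-group measurement divided by that of the vehicle-treated control group.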

[1] = dose: 25.0 mg/kg/injection, schedule: Q01DX009 (ip), vehicle: saline
[2] = dose: 50.0 mg/kg/injection, schedule: Q01DX009 (ip), vehicle: saline
[3] = dose: 200.0 mg/kg/injection, schedule: Q01DX009 (ip), vehicle: saline

Measured: T/C

CC(=O)NC1CC(C)(C)NC(C)(C)C1
inactive: dose: 12.5 mg/kg/injection, schedule: Q01DX009 (ip), vehicle: saline 100 % of control | [1] 96 % of control | [2] 114 % of control and 88 % of control | [3] 95 % of control

CCCCC(CC)C1NC(C(=O)O)CS1 (stereo not drawn)
inactive: dose: 50.0 mg/kg/injection, schedule: Q01DX009 (ip), vehicle: suspension in saline 96 % of control | dose: 100.0 mg/kg/injection, schedule: Q01DX009 (ip), vehicle: suspension in saline 87 % of control | dose: 200.0 mg/kg/injection, schedule: Q01DX009 (ip), vehicle: suspension in saline 96 % of control

CC1(CO)C2CCC(CC2)C1CO (stereo not drawn)
inactive: dose: 50.0 mg/kg/injection, schedule: Q01DX009 (ip), vehicle: saline with Tween-80 109 % of control | dose: 100.0 mg/kg/injection, schedule: Q01DX009 (ip), vehicle: saline with Tween-80 100 % of control | dose: 200.0 mg/kg/injection, schedule: Q01DX009 (ip), vehicle: saline with Tween-80 104 % of control

COc1ccc2[nH]c(=O)oc(=O)c2c1
inactive: [1] 100 % of control | [2] 96 % of control | dose: 100.0 mg/kg/injection, schedule: Q01DX009 (ip), vehicle: saline 107 % of control | [3] 107 % of control

COC(=O)C1(CS(C)(=O)=O)NC(=S)NC(=O)C1C#N (stereo not drawn)
inactive: dose: 60.0 mg/kg/injection, schedule: Q01DX005 (ip), vehicle: saline 97 % of control | dose: 120.0 mg/kg/injection, schedule: Q01DX005 (ip), vehicle: saline 91 % of control | dose: 240.0 mg/kg/injection, schedule: Q01DX005 (ip), vehicle: saline 91 % of control

Cc1ccc(C(=O)Nc2ccncc2)cc1
inactive: dose: 6.25 mg/kg/injection, schedule: Q01DX009 (ip), vehicle: Klucel (hydroxypropylcellulose) (HPC) 109 % of control | dose: 12.5 mg/kg/injection, schedule: Q01DX009 (ip), vehicle: Klucel (hydroxypropylcellulose) (HPC) 99 % of control

COc1cc2cnccc2cc1O
inactive: dose: 6.25 mg/kg/injection, schedule: Q01DX009 (ip), vehicle: water 92 % of control | dose: 12.5 mg/kg/injection, schedule: Q01DX009 (ip), vehicle: water 103 % of control | dose: 25.0 mg/kg/injection, schedule: Q01DX009 (ip), vehicle: water 98 % of control | dose: 50.0 mg/kg/injection, schedule: Q01DX009 (ip), vehicle: water 95 % of control | dose: 100.0 mg/kg/injection, schedule: Q01DX009 (ip), vehicle: water 110 % of control

Cc1n[nH]c2ccc([N+](=O)[O-])cc2c1=O
inactive: dose: 6.25 mg/kg/injection, schedule: Q01DX009 (ip), vehicle: saline with Tween-80 100 % of control | dose: 12.5 mg/kg/injection, schedule: Q01DX009 (ip), vehicle: saline with Tween-80 100 % of control | dose: 25.0 mg/kg/injection, schedule: Q01DX009 (ip), vehicle: saline with Tween-80 90 % of control | dose: 50.0 mg/kg/injection, schedule: Q04DX003 (ip), vehicle: saline with Tween-80 100 % of control | dose: 100.0 mg/kg/injection, schedule: Q04DX003 (ip), vehicle: saline with Tween-80 95 % of control | dose: 200.0 mg/kg/injection, schedule: Q04DX003 (ip), vehicle: saline with Tween-80 100 % of control

C/C1=C/CCC(C)c2cc(OC(=O)c3ccccc3)c(C)cc2C1 (stereo not drawn)
inactive: dose: 25.0 mg/kg/injection, schedule: Q01DX005 (ip), vehicle: Klucel (hydroxypropylcellulose) (HPC) 104 % of control | dose: 50.0 mg/kg/injection, schedule: Q01DX005 (ip), vehicle: Klucel (hydroxypropylcellulose) (HPC) 99 % of control | dose: 70.0 mg/kg/injection, schedule: Q01DX005 (ip), vehicle: Klucel (hydroxypropylcellulose) (HPC) 90 % of control | dose: 100.0 mg/kg/injection, schedule: Q01DX005 (ip), vehicle: Klucel (hydroxypropylcellulose) (HPC) 107 % of control | dose: 140.0 mg/kg/injection, schedule: Q01DX005 (ip), vehicle: Klucel (hydroxypropylcellulose) (HPC) 95 % of control | dose: 200.0 mg/kg/injection, schedule: Q01DX005 (ip), vehicle: Klucel (hydroxypropylcellulose) (HPC) 95 % of control | dose: 280.0 mg/kg/injection, schedule: Q01DX005 (ip), vehicle: Klucel (hydroxypropylcellulose) (HPC) 90 % of control | dose: 560.0 mg/kg/injection, schedule: Q01DX005 (ip), vehicle: Klucel (hydroxypropylcellulose) (HPC) 90 % of control
